A melting point compilation (Tetko et al.; mined from patent text by program, amines drawn as free bases though some values may be those of a salt)

First: CC(=O)c1nc(C)cn1-c1cc(C)c2[nH]c(=O)ccc2c1
Second: Cc1ccccc1-c1cc2cnc(N)nc2n(C)c1=O
The melting point of the first is higher: 312 to 314 °C for the first, 239 °C for the second.

First: COc1ccc(F)cc1C(C)(C)CC(O)(CN1CC(C)NC(C)C1)C(F)(F)F (centres undefined)
Second: COc1ccccc1OCC(O)CN1CCC2(CC1)CNC(=O)O2 (centres undefined)
The melting point of the first is lower: 61 to 62 °C for the first, 124 to 125 °C for the second.

Compared with `COC(=O)c1ccc(Cc2cn(C)c3ccc(NC(=O)CC4CCCC4)cc23)c(OC)c1`, `CC1(C)CCC(C)(C)c2cc(NC(=O)c3ccc(C(=O)O)cc3O)ccc21` is higher in melting point: 180 to 181 °C for the first, 286 to 287 °C for the second.

First: O=C1c2cccc([N+](=O)[O-])c2C2CC3(CCN12)SCCS3 (centres undefined)
Second: O=c1c(CCl)c[nH]c2c([N+](=O)[O-])cccc12
The melting point of the first is lower: 185 °C for the first, 228 to 235 °C for the second.

First: C=C(CCCC(=O)N1CCC[C@@H](C(=O)OC(C)(C)C)N1)C(=O)OCC
Second: CC(C)(C)OC(=O)NC(Cc1ccc([N+](=O)[O-])cc1)C(=O)O (centres undefined)
The melting point of the first is lower: 63 to 65 °C for the first, 105 to 107 °C for the second.

Compared with `Clc1ccc(Cn2cnc3c(-c4ccco4)ncnc32)cc1Cl`, `O=C1C=C(NC(=O)C(=O)c2cn(Cc3ccc(Cl)cc3)c3ccccc23)CS1` is higher in melting point: 183 to 185 °C for the first, 248 to 250 °C for the second.

Compared with `Cc1nc[nH]c1CSCCNC(=C[N+](=O)[O-])NN`, `CNC(NCCSCc1[nH]cnc1C)=C(C#N)C#N` is lower in melting point: 142 °C for the first, 133 to 135 °C for the second.

Compared with `CN1CCN(C2=Nc3ccccc3Nc3cscc32)CC1`, `Cc1cc(C)cc(N2CCN(C(=O)NCC(c3ccccc3)c3ccccc3)CC2)c1` is lower in melting point: 200 to 201 °C for the first, 174 to 175 °C for the second.

First: Nc1ccc(Sc2cccc3cnccc23)c([N+](=O)[O-])c1
Second: COc1ccc(-c2ccc(Br)cc2[N+](=O)[O-])cc1
The melting point of the first is higher: 222 to 227 °C for the first, 130 to 131 °C for the second.

First: CCCOc1ccc(-c2ccc(OCC(CN3C(=O)NC(C)(C)C3=O)N(O)C=O)cc2)cc1 (centres undefined)
Second: O=C1CN(c2ccccc2)C(=O)N1C(=O)c1ccc(-c2ccccc2)cc1
The melting point of the first is lower: 158 to 160 °C for the first, 196 to 198 °C for the second.

First: CCOC(=O)c1ccc(C(=O)c2ccc(N)cc2)cc1
Second: CCCCC(=O)Oc1c(-c2ccc(-c3ccccc3)cc2)nc2ccc(F)cc2c1C(=O)O
The melting point of the first is lower: 125 °C for the first, 214 to 217 °C for the second.

Compared with `Cc1ncncc1C(=O)Nc1ccc(-n2nc(C(F)(F)F)cc2C2CC2)cc1`, `Cc1ccc2c(N3CCN(C)C3=O)ccnc2c1NC(=O)c1c(Cl)cccc1Cl` is higher in melting point: 163 to 166 °C for the first, > 250 °C for the second.

Compared with `O=C1NC(Cc2cccc(OC(F)(F)C(F)F)c2)C(c2ccc(Oc3ccccc3)cn2)O1` (centres undefined), `Cn1c(=O)n(C)c2cc3c(N4CCN(C(=O)Nc5ccc(Oc6ccccc6)cc5)CC4)ncnc3cc21` is higher in melting point: 87 to 88 °C for the first, 250 to 255 °C for the second.

First: O=C(O)CCCc1cc2cc(Cl)ccc2n1S(=O)(=O)c1cccc2cccnc12
Second: COc1ccc(S(=O)(=O)N(CC(N)=O)c2ccc(Cl)cc2C(O)c2ccccc2Cl)c(OC)c1 (centres undefined)
The melting point of the first is higher: 217 to 219 °C for the first, 158 °C for the second.

First: CC(C)c1cccc(C(C)C)c1NC(=O)NC1COc2ccccc2C1 (centres undefined)
Second: COc1cc(CN(C)Cc2ccccc2)ccc1NC(=O)Nc1cnc(C)cn1
The melting point of the first is higher: 186 to 188 °C for the first, 142 to 143 °C for the second.

First: O=C1C2CCCCC2C2(c3ccccc3)NCCN12 (centres undefined)
Second: O=C1CCC(c2ccccc2)(c2ccccc2)C2CN(C(Cc3ccccc3)=NCc3cccnc3)CC12 (centres undefined)
The melting point of the first is higher: 170 °C for the first, 102 °C for the second.

Compared with `c1ccc(COc2cccn3ccnc23)cc1`, `O=C1C=CC(OCc2ccccc2)N1S(=O)(=O)c1ccccc1` (centres undefined) is lower in melting point: 110 °C for the first, 56 to 58 °C for the second.

Compared with `Cc1ncc(CO)n1-c1ccc([N+](=O)[O-])cc1C(=O)c1ccccc1F`, `CN1C(=O)C(C)(C)N=C(c2ccccc2F)c2c1cc(Br)c(N)c2Br` is higher in melting point: 188 to 192 °C for the first, 202 °C for the second.

First: CCCN1CCC=C(c2cccc3[nH]ccc23)C1
Second: Fc1ccc(OC(CCN2CCN(c3ccccc3)CC2)c2ccccc2)cc1 (centres undefined)
The melting point of the first is higher: 168 °C for the first, 80 to 82 °C for the second.

First: Cn1c(CO)nc([N+](=O)[O-])c1C#N
Second: Cc1cccc(C)c1-n1cc(C#N)c(=O)n(SC(Cl)(Cl)Cl)c1=O
The melting point of the first is lower: 122 to 124 °C for the first, 223 to 225 °C for the second.

First: CC(=O)OCC1OC([NH+]2C=NC(C#N)=C2[O-])C(OC(C)=O)C1OC(C)=O (centres undefined)
Second: COCc1nc(C(=O)OC)c(C(=O)OC)[nH]1
The melting point of the first is higher: 160 to 161 °C for the first, 93 to 95 °C for the second.

First: NC(=O)/C=C/c1cnoc1-c1ccccc1
Second: Nc1n[nH]c(Nc2ccccc2)n1
The melting point of the first is higher: 194 to 196 °C for the first, 158 to 159 °C for the second.

First: CCCC(NS(=O)(=O)c1ccc(Cl)cc1)C(=O)NN (centres undefined)
Second: CCOC(=O)c1ccc(SC)c(Cl)c1N(CC)S(C)(=O)=O
The melting point of the first is higher: 120 °C for the first, 70.5 to 73.5 °C for the second.

Compared with `Cc1noc(NS(=O)(=O)c2ccsc2C(=O)NS(=O)(=O)c2cccc3c(N(C)C)cccc23)c1Br`, `CC(C)(C)C(NC(=O)c1cc(F)cc(F)c1)Nc1c(Nc2cccnc2Cl)c(=O)c1=O` (centres undefined) is higher in melting point: 184 to 186 °C for the first, 215 to 217 °C for the second.

First: O=C(O)Cn1cccc(NC(=O)CCc2ccccc2)c1=O
Second: CCOC1=CC2=CCc3cc(C#N)ccc3[C@]2(Cc2ccccc2)CC1
The melting point of the first is higher: 195 to 197 °C for the first, 164 to 165 °C for the second.

Compared with `CC(C)c1ccc(C2(OC(=O)C(C)(C)C)C(=O)c3ccccc3C2=O)c(OC(=O)C(C)(C)C)c1`, `COC(=O)Cc1ccc(OCCNC(=O)C2Cc3ccccc3N2S(=O)(=O)c2ccc(-c3cc(C(F)(F)F)ccc3C)cc2)cc1` (centres undefined) is lower in melting point: 121 to 124 °C for the first, 46 to 49 °C for the second.

Compared with `Cc1ccc2ccc(NCc3c(C)c(CNc4ccc5ccc(C)nc5n4)c(C)c(CNc4ccc5ccc(C)nc5n4)c3C)nc2n1`, `Cc1ccc(COc2ccc(CC(NC(=O)c3cn4ccc(-c5ccc(Cl)cc5)cc4n3)C(=O)O)cc2)cc1` (centres undefined) is higher in melting point: 207 to 208 °C for the first, 262 °C for the second.

Compared with `CN(C)CCOc1ccc2ccc(N)nc2n1`, `CCCNc1cc(Nc2ccc(OC)cc2)ncn1` is higher in melting point: 105 °C for the first, 194 to 196 °C for the second.

First: N#CCN1C(=O)COc2cc(F)ccc21
Second: CSC1Oc2ccc(Cl)cc2C1=O (centres undefined)
The melting point of the first is higher: 111 to 113 °C for the first, 76 to 78 °C for the second.

First: C=CCn1c(=O)[nH]c(=O)n(-c2cc(N3C(=O)C4=C(CCCC4)C3=O)c(F)cc2Cl)c1=O
Second: Cc1cc(C=CC#N)cc(C(=O)c2c(C(C)C)c(=O)[nH]c(=O)n2CC2CC2)c1
The melting point of the first is lower: 130 to 145 °C for the first, 225 to 226 °C for the second.

Compared with `CC(C)c1cccc(C(C)C)c1-c1cc(OCc2ccccc2)ccc1CC(NC(c1ccccc1)c1ccccc1)C(N)=O` (centres undefined), `CCCOc1ccc(S(=O)(=O)Nc2ccc3[nH]ncc3c2)cc1-c1nc2cc3nc[nH]c3cc2c(=O)[nH]1` is higher in melting point: 148 to 150 °C for the first, 261 to 263 °C for the second.

First: COc1cc(F)c(F)cc1OCCN
Second: CNC(=O)c1c(OC(C)C)c2cc(OC)ccc2n1C
The melting point of the first is lower: 44 to 46 °C for the first, 85 to 86 °C for the second.

Compared with `CCc1c(C(=O)c2cc(C)cc(C)c2)n(CC2=CC(CO)C(CO)C2)c(=O)[nH]c1=O` (centres undefined), `Cc1cc2nc3c4cc(O)ccc4n(CCN(C)C)c3nc2cc1C` is higher in melting point: 79 to 80 °C for the first, > 260 °C for the second.

First: CC(=O)OC(c1nc(C)c(C)s1)(c1nc(C)c(C)s1)C(F)(F)F
Second: Cn1nc(C(F)(F)F)cc1Oc1cc(Oc2cc(C(F)(F)F)nn2C)nc(Oc2cc(C(F)(F)F)nn2C)c1
The melting point of the first is higher: 163 to 164 °C for the first, 130 °C for the second.

In the case of `O=C1OCCC12Sc1ccc(S(=O)(=O)N3CCOCC3)cc1C2=O` (centres undefined), the melting point is reported as 220 to 222 °C.
